Target: T1, human ferroportin (Homo sapiens, UniProt Q9NP59)
T1 construct: luciferase reporter (read with the Nano-Glo Luciferase Assay System); expressed in transfected cells; host or cells: CHO cells, stably transfected, expression induced with doxycycline
T1 sequence (Q9NP59 1-571): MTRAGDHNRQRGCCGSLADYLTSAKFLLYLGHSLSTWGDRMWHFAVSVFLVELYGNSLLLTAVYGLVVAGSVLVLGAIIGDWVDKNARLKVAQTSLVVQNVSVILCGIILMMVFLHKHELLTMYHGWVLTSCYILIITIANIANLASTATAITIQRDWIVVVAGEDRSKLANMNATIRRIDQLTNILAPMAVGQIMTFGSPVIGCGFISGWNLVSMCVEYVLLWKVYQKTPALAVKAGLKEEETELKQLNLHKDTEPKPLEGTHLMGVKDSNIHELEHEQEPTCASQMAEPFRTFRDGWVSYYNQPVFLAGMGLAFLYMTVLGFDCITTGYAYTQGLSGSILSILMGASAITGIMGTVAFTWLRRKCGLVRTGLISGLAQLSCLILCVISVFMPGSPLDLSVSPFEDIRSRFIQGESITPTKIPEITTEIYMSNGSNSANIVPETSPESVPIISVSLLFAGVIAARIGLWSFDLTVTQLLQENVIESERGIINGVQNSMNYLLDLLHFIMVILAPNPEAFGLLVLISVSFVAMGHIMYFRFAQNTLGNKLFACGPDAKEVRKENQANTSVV
Assay: Biological in-vitro ferroportin internalization assay (luciferase reporter)
Assay type: cell-based
Settings: average pEC50; stably-transfected CHO cell line expressing human ferroportin tagged to a luciferase reporter; 6 h incubation with test compound
In short: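 Stably transfected CHO cells expressing luciferase-tagged human ferroportin, plated 24 h with ferric ammonium citrate and induced with doxycycline for 24 h. Compounds incubated 6 h, then luciferase activity measured by Nano-Glo; average pEC50 reported.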

| Structure (SMILES) | pEC50 |
| --- | --- |
| CN1CCC[C@@H](Oc2ccnc(-c3nc4c(c(N(C)CC(=O)NC(C)(C)C)n3)CCC4)c2)C1 [Compound 489, N-tert-butyl-2-{methyl[2-(4-{[(3R)-1-methylpiperidin-3-yl]oxy}pyridin-2-yl)-5H,6H,7H-cyclopenta[d]pyrimidin-4-yl]amino}acetamide] | 8.2 |
| CN(CC(=O)NC1CCCOC1)c1nc(-c2ccccn2)nc2c1CCC2 (stereo not shown) [Compound 26, 2-{methyl[2-(pyridin-2-yl)-5H,6H,7H-cyclopenta[d]pyrimidin-4-yl]amino}-N-(oxan-3-yl)acetamide] | 6.6 |
| COc1cccc2c1CCN(c1nc(-c3ccccn3)nc3c1CCC3)CC2 [Compound 3, 6-methoxy-3-[2-(pyridin-2-yl)-5H,6H,7H-cyclopenta[d]pyrimidin-4-yl]-2,3,4,5-tetrahydro-1H-3-benzazepine] | 6.8 |
| CN(Cc1nc2ccccc2o1)c1nc(-c2ccccn2)nc2c1CCC2 [Compound 82, N-[(1,3-benzoxazol-2-yl)methyl]-N-methyl-2-(pyridin-2-yl)-5H,6H,7H-cyclopenta[d]pyrimidin-4-amine] | 6.8 |
| CNCCOc1ccnc(-c2nc3c(c(NCC(=O)NC(C)(C)C)n2)CCC3)c1 [Compound 485, N-tert-butyl-2-[(2-{4-[2-(methylamino)ethoxy]pyridin-2-yl}-5H,6H,7H-cyclopenta[d]pyrimidin-4-yl)amino]acetamide] | 7.1 |
| CN(CC(=O)NC1CCOCC1)c1nc(-c2cc(OCCO)ccn2)nc2c1CCC2 [Compound 140, 2-({2-[4-(2-hydroxyethoxy)pyridin-2-yl]-5H,6H,7H-cyclopenta[d]pyrimidin-4-yl}(methyl)amino)-N-(oxan-4-yl)acetamide] | 7 |
| CCNC(=O)CN(C)c1nc(-c2cc(OCC(O)(CC)CC)ccn2)nc2c1CCC2 [Compound 442, N-ethyl-2-({2-[4-(2-ethyl-2-hydroxybutoxy)pyridin-2-yl]-5H,6H,7H-cyclopenta[d]pyrimidin-4-yl}(methyl)amino)acetamide] | 8 |
| C[C@H](C(=O)NC1CCCCC1)N(C)c1nc(-c2cn(C)cn2)nc2c1CCC2 [Compound 118, (2R)—N-cyclohexyl-2-{methyl[2-(1-methyl-1H-imidazol-4-yl)-5H,6H,7H-cyclopenta[d]pyrimidin-4-yl]amino}propanamide] | 7.8 |
| COc1ccc(NC(=O)CN(C)c2nc(-c3cc4cn[nH]c4cn3)nc3c2CCC3)cn1 [Compound 219, N-(6-methoxypyridin-3-yl)-2-[methyl(2-{1H-pyrazolo[3,4-c]pyridin-5-yl}-5H,6H,7H-cyclopenta[d]pyrimidin-4-yl)amino]acetamide] | 7.1 |
| CSc1ccnc(-c2nc3c(c(N(C)CC(=O)NC(C)(C)C)n2)CCC3)c1 [Compound 498, N-tert-butyl-2-[methyl({2-[4-(methylsulfanyl)pyridin-2-yl]-5H,6H,7H-cyclopenta[d]pyrimidin-4-yl})amino]acetamide] | 7.5 |
| CN(CC(=O)NC(C)(C)C)c1nc(-c2cc(OCCS(C)(=O)=O)ccn2)nc2c1CCC2 [Compound 507, N-tert-butyl-2-({2-[4-(2-methanesulfonylethoxy)pyridin-2-yl]-5H,6H,7H-cyclopenta[d]pyrimidin-4-yl}(methyl)amino)acetamide] | 7.9 |
| O=C(NC1CCCCC1)C1CN(c2nc(-c3ccccn3)nc3c2CCC3)C1 [Compound 29, N-cyclohexyl-1-[2-(pyridin-2-yl)-5H,6H,7H-cyclopenta[d]pyrimidin-4-yl]azetidine-3-carboxamide] | 5.9 |
| CN(c1nc(-c2ccccn2)nc2c1CCC2)[C@H]1CCN(C2(C)CCCC2)C1=O [Compound 207, (3S)-3-{methyl[2-(pyridin-2-yl)-5H,6H,7H-cyclopenta[d]pyrimidin-4-yl]amino}-1-(1-methylcyclopentyl)pyrrolidin-2-one] | 7.2 |
| CN(CC(=O)NC(C)(C)C)c1nc(-c2ncc(CCO)s2)nc2c1CCC2 [Compound 107, N-tert-butyl-2-({2-[5-(2-hydroxyethyl)-1,3-thiazol-2-yl]-5H,6H,7H-cyclopenta[d]pyrimidin-4-yl}(methyl)amino)acetamide] | 5.7 |
| Cc1ccnc(-c2cc(N(C)CC(=O)NC(C)(C)C)c3c(n2)CCC3)c1 [Compound 68, N-tert-butyl-2-{methyl[2-(4-methylpyridin-2-yl)-5H,6H,7H-cyclopenta[b]pyridin-4-yl]amino}acetamide] | 7.2 |
| CN(C)CCOc1ccnc(-c2nc3c(c(N(C)CC(=O)NC(C)(C)C)n2)CCC3)c1 [Compound 348, N-tert-butyl-2-[(2-{4-[2-(dimethylamino)ethoxy]pyridin-2-yl}-5H,6H,7H-cyclopenta[d]pyrimidin-4-yl)(methyl)amino]acetamide] | 8.0 |

| Structure (SMILES) | pEC50 |
| --- | --- |
| COCCN(C)c1nc(-c2ccccn2)nc2c1CCC2 [Compound 84, N-(2-methoxyethyl)-N-methyl-2-(pyridin-2-yl)-5H,6H,7H-cyclopenta[d]pyrimidin-4-amine] | 6.6 |
| COc1ccnc(-c2nc3c(c(N(C)CC(=O)N4CC[C@H](O)C4)n2)CCC3)c1 [Compound 472, 1-[(3S)-3-hydroxypyrrolidin-1-yl]-2-{[2-(4-methoxypyridin-2-yl)-5H,6H,7H-cyclopenta[d]pyrimidin-4-yl](methyl)amino}ethan-1-one] | 7.4 |
| CN(CC(=O)N1CCCCC1)c1nc(-c2cc(O[C@@H]3CCOC3)ccn2)nc2c1CCC2 [Compound 342, 2-[methyl(2-{4-[(3R)-oxolan-3-yoxy]pyridin-2-yl}-5H,6H,7H-cyclopenta[d]pyrimidin-4-yl)amino]-1-(piperidin-1-yl)ethan-1-one] | 7.6 |
| CN(CC(=O)NC1CC1)c1nc(-c2cc(OCC(C)(C)O)ccn2)nc2c1CCC2 [Compound 398, N-cyclopropyl-2-({2-[4-(2-hydroxy-2-methylpropoxy)pyridin-2-yl]-5H,6H,7H-cyclopenta[d]pyrimidin-4-yl}(methyl)amino)acetamide] | 8.1 |
| CCn1cncc1-c1nc2c(c(N(C)CC(=O)NC(C)(C)C)n1)CCC2 [Compound 194, N-tert-butyl-2-{[2-(1-ethyl-1H-imidazol-5-yl)-5H,6H,7H-cyclopenta[d]pyrimidin-4-yl](methyl)amino}acetamide] | 5.4 |
| CN(CC(=O)NC(C)(C)C)c1nc(-c2ncccc2O)nc2c1CCC2 [Compound 181, N-tert-butyl-2-{[2-(3-hydroxypyridin-2-yl)-5H,6H,7H-cyclopenta[d]pyrimidin-4-yl](methyl)amino}acetamide] | 6.5 |
| COc1ccnc(-c2nc3c(c(N4CCCCCC4)n2)CCC3)c1 [Compound 53, 1-[2-(4-methoxypyridin-2-yl)-5H,6H,7H-cyclopenta[d]pyrimidin-4-yl]azepane] | 6.6 |
| CN(CC(=O)Nc1cnn(C2CC2)c1)c1nc(-c2cc(OCCO)ccn2)nc2c1CCC2 [Compound 353, N-(1-cyclopropyl-1H-pyrazol-4-yl)-2-({2-[4-(2-hydroxyethoxy)pyridin-2-yl]-5H,6H,7H-cyclopenta[d]pyrimidin-4-yl}(methyl)amino)acetamide] | 7.8 |
| O=C(CNc1nc(-c2ccccn2)nc2c1CCC2)Nc1ccc2cccnc2c1 [Compound 7, 2-{[2-(pyridin-2-yl)-5H,6H,7H-cyclopenta[d]pyrimidin-4-yl]amino}-N-(quinolin-7-yl)acetamide] | 6.6 |
| CN(C)c1ccnc(-c2nc3c(c(N4CCCCCC4)n2)CCC3)c1 [Compound 13, 2-[4-(azepan-1-yl)-5H,6H,7H-cyclopenta[d]pyrimidin-2-yl]-N,N-dimethylpyridin-4-amine] | 6.4 |
| CN(CC(=O)NC(C)(C)CO)c1nc(-c2ccccn2)nc2c1CCC2 [Compound 61, N-(1-hydroxy-2-methylpropan-2-yl)-2-{methyl[2-(pyridin-2-yl)-5H,6H,7H-cyclopenta[d]pyrimidin-4-yl]amino}acetamide] | 7.1 |
| CN(CC(=O)NC(C)(C)C)c1nc(-c2cn(C)cn2)nc2c1CCC2 [Compound 125, N-tert-butyl-2-{methyl[2-(1-methyl-1H-imidazol-4-yl)-5H,6H,7H-cyclopenta[d]pyrimidin-4-yl]amino}acetamide] | 7.5 |
| Cc1cc(OCC(C)(C)O)cc(-c2nc3c(c(N(C)CC(=O)NC(C)(C)C)n2)CCC3)n1 [Compound 440, N-tert-butyl-2-({2-[4-(2-hydroxy-2-methylpropoxy)-6-methylpyridin-2-yl]-5H,6H,7H-cyclopenta[d]pyrimidin-4-yl}(methyl)amino)acetamide] | 8 |
| CN(CC(=O)NC(C)(C)C)c1nc(-c2cc(C#N)ccn2)nc2c1CCC2 [Compound 158, N-tert-butyl-2-{[2-(4-cyanopyridin-2-yl)-5H,6H,7H-cyclopenta[d]pyrimidin-4-yl](methyl)amino}acetamide] | 6.2 |
| Cc1ccc(NC(=O)CN(C)c2nc(-c3cc4ccccc4cn3)nc3c2CCC3)cn1 [Compound 222, 2-{[2-(isoquinolin-3-yl)-5H,6H,7H-cyclopenta[d]pyrimidin-4-yl](methyl)amino}-N-(6-methylpyridin-3-yl)acetamide] | 7.2 |

— patent US11746100B2 (GLOBAL BLOOD THERAPEUTICS, INC., priority 2020, dated 2023)
